The record followed here is patent US8895725B2, “Use of 9, 10-anthraquinone compounds” (Shanghai Institute of Pharmaceutical Industry, priority 2008, dated 2014).

One may read the inhibition as the drop in the measured response relative to a control, in per cent. In general, IC50 refers to the concentration needed to halve the response being measured.

For data set [1], the system named is derivative cell line of Huh7. The experiment in a line: Cytotoxicity (cell density versus negative control group). In kind it is cell-based. How it is done: (§1) The derivative cell line of Huh7 and the virus strain of HCV were used in this experiment. The virus strain can produce high-titer and infectious virus particles of HCV in the cells.
(§2) The cells were inoculated in 96-well flat-bottomed plates at a concentration of 1×10^4/100 μl/well and cultivated overnight. The HCV supernatant was diluted to 1×10^3 ffu/ml with complete medium (DMEM contains 10% fetal bovine serum, 100 U/ml penicillin and 100 μg/ml streptomycin) and infected the cells at 50 ffu/well.
Instructions to Cytotoxicity: Noncytotoxic=the cell density of the experimental group/the cell density of the negative control group[…] Cytotoxicity=the cell density of the experimental group/the cell density of the negative control group<80%

Data set [2] has as its system HCV. The experiment in a line: Focus reduction assay of HCV infection. The conditions noted are these: for inhibition effect towards HCV: summary in words; for inhibition at 100 µg/mL: 100 μg/ml; for Inhibition Rate of the number of Virus foci (%): cells pre-incubated 1 hour with interferon. In kind it is cell-based. How it is done: The stock solutions with a concentration of 20 mg/ml were prepared by dissolving the samples in DMSO and were kept at 4° C. When testing, the stored stock solutions were diluted to 5 mg/ml and 2 mg/ml with DMSO.
as §1, §2
The sample solutions with different concentrations (2 mg/ml and 1 mg/ml) were respectively diluted in complete medium at a volume ratio of 1:50 to reach the concentrations of 40 μg/ml and 20 μg/ml. […] After 1 hour of incubation at room temperature, the culture medium in the 96-well flat-bottomed plates was discarded, then 100 μl of the above mixed solution was added to each well, and then was cultured for 8 hours in 37° C. incubator containing 5% CO2. After that, the supernatant was discarded, then was washed once with phosphate buffer without calcium or magnesium ion (DPBS). 150 μl of fresh complete medium was added to each well, and then was cultured for 64 hours in 37° C. incubator containing 5% CO2. 150 μl of 4% paraformaldehyde (PFA) was added to each well, and was fixed at room temperature for 15 min. The supernatant was discarded, then was washed with DPBS for 3 times, and Immune fluorescence staining was conducted with anti HCV-E2 human monoclonal antibody and anti-human secondary antibody labeled by immunofluorescein, then was watched with fluorescence microscope and the amounts of virus colony were recorded.
In the negative control group, DMSO was used instead of the sample solutions, and other conditions were the same as that in sample testing.
The solution of the interferon was diluted to 5, 50 and 500 IU/ml respectively with complete medium, and were hatched for 1 hour with cells, then diluted virus solution was added. Other conditions were the same as that in the extract testing. The inhibition rate=(the amount of virus colony in the negative control group−the amount of viruscolony in the experimental group)/the amount of virus colony in the negative control group×100%.

Where [3] appears, read: Hepatitis C virus, Huh-7, read-out: Inhibition Rate of the number of Virus foci (%).
[4] abbreviates: Hepatitis C virus, Huh-7, 10 μg/ml, Huh7 derivative cells, read-out: Inhibition Rate of the number of Virus foci (%).
Setting [5] is: Hepatitis C virus, Huh-7, 5 μg/ml, Huh7 derivative cells, read-out: Inhibition Rate of the number of Virus foci (%).
[6] abbreviates: Hepatitis C virus, Huh-7, 20 μg/ml, Huh7 derivative cells, read-out: Inhibition Rate of the number of Virus foci (%).
[7] abbreviates: Hepatitis C virus, Huh-7, Huh7 derivative cells, read-out: Inhibition Rate of the number of Virus foci (%).

≈ marks a conversion by molar mass, not a printed value. Entries after “also recorded” stand apart in the source; their conditions may differ. Like-named read-outs stand apart in the source and are kept apart here.

In the case of `O=C1c2ccccc2C(=O)c2c(O)ccc(O)c21` [1,4-dihydroxyl-9,10-anthraquinone], the Cytotoxicity entry in data set [1] (5 μg/ml) is recorded as “None”. In addition, the inhibition at 5 µg/mL in data set [2] (setting [3]) was found to be 81%. In addition, the “inhibition effect towards HCV” value in data set [2] is reported as “obvious inhibition effect”.
For the compound `O=C1c2cccc(O)c2C(=O)c2c(O)cccc21` [1,8-Dihydroxyl-9,10-anthraquinone, 1,8-dihydroxyl-9,10-anthraquinone], the inhibition at 0.04 µg/mL in data set [2] (Hepatitis C virus, Huh-7, 0.04 μg/ml, Huh7 derivative cells, read-out: Inhibition Rate of the number of Virus foci (%)) was 45%. In addition, in data set [2] (Hepatitis C virus, Huh-7, 0.2 μg/ml, Huh7 derivative cells, read-out: Inhibition Rate of the number of Virus foci (%)), the inhibition at 0.2 µg/mL amounted to 100%. The “inhibition effect towards HCV” value in data set [2] was “obvious inhibition effect”.
In the case of `O=C1c2ccccc2C(=O)c2c1cc(S(=O)(=O)[O-])c(O)c2O.[Na+]` [Alizarin Red S, 1,2-dihydroxylanthraquinone-3-sulfonate], in data set [2] (setting [4]), the inhibition at 10 µg/mL worked out at 22%. For the same compound, the “inhibition effect towards HCV” value in data set [2] is “obvious inhibition effect”.
As for `O=C1c2ccccc2C(=O)c2c1ccc(O)c2O` [Alizarin, 1,2-dihydroxyl-9,10-anthraquinone], in data set [1] (10 μg/ml), the Cytotoxicity entry is “None”. In addition, the inhibition at 10 µg/mL in data set [2] (setting [3]) is 31%. In addition, the “inhibition effect towards HCV” value in data set [2] was “obvious inhibition effect”.
In the case of `O=C1c2cccc(O)c2C(=O)c2c(O)cc(CO)cc21` [Aloe-emodin, 1,8-dihydroxyl-3-hydroxymethyl anthraquinone], in data set [2] (setting [5]), the inhibition at 5 µg/mL was 95%. Moreover, the inhibition at 20 µg/mL in data set [2] (setting [6]) was 100%. Moreover, the “inhibition effect towards HCV” value in data set [2] was “obvious inhibition effect”.
Take `O=C1c2ccccc2C(=O)c2ccccc21` [Anthraquinone, 9,10-anthraquinone]: in data set [2] (setting [5]), the inhibition at 5 µg/mL was 44%. Also, the “inhibition effect towards HCV” value in data set [2] is given as “obvious inhibition effect”.
For `O=c1cc(-c2ccc(O)cc2)oc2cc(O)cc(O)c12` [Apigenin, reference compound], in data set [2] (setting [5]), the inhibition at 5 µg/mL was found to be 11%. In addition, the inhibition at 20 µg/mL in data set [2] (setting [6]) came to 47%.
As to `Cc1cc(O)c2c(c1)C(=O)c1cccc(O)c1C2=O` [Chrysophanic acid, 1,8-dihydroxyl-6-methyl anthraquinone], in data set [2] (setting [5]), the inhibition at 5 µg/mL came out at 21%. The inhibition at 10 µg/mL in data set [2] (setting [4]) amounted to 17%. For the same compound, the inhibition at 20 µg/mL in data set [2] (setting [6]) is 48%. Moreover, the “inhibition effect towards HCV” value in data set [2] is “obvious inhibition effect”.
In the same order, the values of `Cc1cc(O)c2c(c1)C(=O)c1cc(O)cc(O)c1C2=O` [Emodin, 1,3,8-dihydroxyl-6-methyl anthraquinone] are 52%, 79%, 99% and “obvious inhibition effect”.
Take `Cc1cc(O[C@@H]2OC(CO)[C@@H](O)C(O)C2O)c2c(c1)C(=O)c1cc(O)cc(O)c1C2=O` (stereo partly drawn) [Emodin-8-O-β-D-glucoside, emodin-8-O-β-D-glucoside]: in data set [1] (100 μg/ml), the Cytotoxicity entry is “None”. Also, the inhibition at 100 µg/mL in data set [2] (setting [7]) is 40%. For the same compound, the “inhibition effect towards HCV” value in data set [2] is reported as “obvious inhibition effect”.
For `COc1cc(O)c2c(c1)C(=O)c1cc(C)cc(O)c1C2=O` [Physcion, 1,8-dihydroxyl-3-methoxy-6-methyl anthraquinone], the Cytotoxicity entry in data set [1] (5 μg/ml) and in data set [1] (20 μg/ml) was “None” each time. This compound also gave an IC50 in data set [2] (Hepatitis C virus) of 8 ng/mL (≈ 0.0281 µM). Further, in data set [2] (setting [5]), the inhibition at 5 µg/mL was 100%. Also, in data set [2] (setting [6]), the inhibition at 20 µg/mL was found to be 100%. Moreover, the “anti-HCV activity compared with the other compounds” value in data set [2] (ranking in words) is listed as “better than other compounds; also recorded: the best”. Moreover, the “inhibition effect towards HCV” value in data set [2] is “obvious inhibition effect”.
For the compound `COc1cc(O)c2c(c1)C(=O)c1cc(C)cc(O[C@@H]3OC(CO)[C@@H](O)C(O)C3O)c1C2=O` (stereo partly drawn) [Physcion-8-O-β-D-glucoside, physcion-8-O-β-D-glucoside], in data set [1] (100 μg/ml), the Cytotoxicity entry is “None”. For the same compound, the inhibition at 100 µg/mL in data set [2] (setting [7]) was 40%. For the same compound, the “inhibition effect towards HCV” value in data set [2] was “obvious inhibition effect”.
In the case of `O=C(O)c1cc(O)c2c(c1)C(=O)c1cccc(O)c1C2=O` [Rhein, 1,8-dihydroxyl-3-carboxyl anthraquinone], the Cytotoxicity result in data set [1] (5 μg/ml) and in data set [1] (20 μg/ml) was “None” throughout. Also, the inhibition at 5 µg/mL in data set [2] (setting [3]) was found to be 44%. The inhibition at 20 µg/mL in data set [2] (setting [3]) stood at 82%. Besides, the “inhibition effect towards HCV” value in data set [2] is listed as “obvious inhibition effect”.
Turning to α-interferon [reference compound], the results for the “Inhibition Rate of the number of Virus foci (%)” value in data set [2] (5 IU/ml), in data set [2] (50 IU/ml) and in data set [2] (500 IU/ml) were 53%, 79% and 98%, respectively.
